Here are results for eight compounds from ChEMBL document CHEMBL5728659, “Macrocyclic immunomodulators” (2021).

A short description of this experiment: Enzyme-Linked Immunosorbent Assay-ELISA: 96 Well plates were coated with 1 μg/mL of human PD-L1 (obtained from R&D) in PBS overnight at 4° C. The wells were then blocked with 2% BSA in PBS (W/V) with 0.05% TWEEN-20 for 1 hour at 37° C. The plates were washed 3 times with PBS/0.05% TWEEN-20 and the compounds were serial diluted (1:5) in dilution medium and added to the ELISA plates. Human PD-1 and biotin 0.3 μg/mL (ACRO Biosystems) were added and incubated for 1 hour at 37° C. then washed 3 times with PBS/0.05% TWEEN-20. A second block was performed with 2% BSA in PBS (W/V)/0.05% TWEEN-20 for 10 min at 37° C. and was washed 3 times with PBS/0.05% TWEEN-20. Streptavidin—HRP was added for 1 hour at 37° C. then washed 3 times with PBS/0.05% TWEEN-20. TMB substrate was added and reacted for 20 min at 37° C. A stop solution (2 N aqueous H2SO4) was added. The absorbance was read at 450 nm using a micro-plate spectrophotometer.

Structures are written as SMILES.

Regarding `Cc1c(COc2cc3c(cc2Cl)CN[C@H](C(=O)O)CCCCNC(=O)c2cncc(c2)CO3)cccc1-c1cccc(OCCCCl)c1C`, the 50% inhibitory concentration (IC50) entry is “in the range around 10200 nM”. As for `Cc1c(COc2cc3c(cc2Cl)CN[C@@H](CO)C(=O)NCCNC(=O)c2cncc(c2)CO3)cccc1-c1ccccc1`, the half-inhibitory concentration (IC50) entry was “in the range around 300 nM”. The entry for `Cc1c(COc2cc3c(cc2Cl)CN[C@H](C(=O)O)COCCNC(=O)c2cncc(c2)CO3)cccc1-c1ccccc1` is “in the range around 300 nM”.

As to `Cc1c(COc2cc3c(cc2Cl)CN[C@H](C(=O)O)CCCNC(=O)c2cncc(c2)CO3)cccc1-c1ccccc1`, the half-inhibitory concentration (IC50) result is “in the range around 300 nM”.

As to `Cc1c(COc2cc3c(cc2Cl)CN[C@H](C(=O)O)CCCCNC(=O)c2cncc-3c2)cccc1-c1ccccc1`, the IC50 result was “in the range around 10200 nM”. The entry for `Cc1c(COc2cc3c(cc2Cl)CN[C@H](C(=O)O)CCCCNC(=O)CCCCO3)cccc1-c1ccccc1` is “in the range around 300 nM”; for `O=C1NCCCC[C@@H](C(=O)O)NCc2cc(Cl)c(O[C@H]3CCc4c(-c5ccccc5F)cccc43)cc2OCc2cncc1c2` it is “in the range around 300 nM”. The entry for `Cc1c(COc2cc3c(cc2Cl)CN[C@H](CC(=O)O)CCCCNC(=O)c2cncc(c2)CO3)cccc1-c1ccccc1` is “in the range around 300 nM”.
